Consider 2 compounds from US4273866A, “Ligand analog-irreversible enzyme inhibitor conjugates and methods for use” (priority 1979, dated 1981).

The structures appear in SMILES notation.

Assay [1] addresses T1, E. electricus acetylcholinesterase (Electrophorus electricus, UniProt O42275). Kind of assay: Antibody modulation of Compound I inhibitory activity (residual acetylcholinesterase activity). As to conditions: Compound I 4.5 × 10^-7 M. It is filed as biochemical. How it is done:
(§1) A stock solution of Compound I (4.6×10^-3 molar in methanol) is diluted 200-fold with pH 7.0, 0.1 molar phosphate buffer containing 0.1% gelatin. Digoxin antibody is diluted in phosphate-gelatin buffers as indicated in Table I. Fifty microliters of phosphate-gelatin buffer, pH 7.0, containing the indicated concentration of antibody is placed in sample cups of a bichromatic spectrophotometer (model ABA-100® sold by Abbott Laboratories). To each of these 50 μl is added 1 μl of Compound I working solution making the final concentration 4.5×10^-7 molar. The antibody and Compound I (inhibitor) are allowed to incubate for 10-15 minutes at room temperature. Each sample receives 1 .parallel.l of working enzyme solution (9.5×10^-9 molar of E. electricus acetylcholinesterase in pH 7.0 phosphate-gelatin buffer). The final enzyme concentration is 1.9×10^-10 molar. The sample is diluted 1/26 with assay buffer containing acetylthiocholine, as substrate, 5×10^-4 molar and 5,5'-dithiobis-(2 -nitrobenzoic acid) (DTNB), 1.6×10^-4 molar in pH 7.0 phosphate-gelatin buffer. The change in absorbance with time is measured after 5 minutes in the bichromatic analyzer equipped with a 415/550 nm filter at 30° C.

Assay [2] deals with T1, E. electricus acetylcholinesterase. The assay can be described thus: Specific modulation of Compound I inhibition by digoxin antibody and digoxin. In kind it is biochemical. On the procedure:
as §1, with “C. The results are as follows:” for “C.”
The above experiment is repeated except digoxin at a concentration of 2.5×10^-5 molar is added to the sample cups. […] Fifty microliters of phosphate-gelatin buffer is added to a sample cup. The buffer solution either contains 2.5×10^-5 molar digoxin or is a control. To the sample cup is added a final concentration of 9×10^-7 molar digoxin antibody and 4.5×10^-7 molar Compound I. These solutions are allowed to incubate for 15 minutes and then enzyme is added and assayed according to the previous procedure.

Assay [3] has the same target. The assay can be described thus: Residual enzyme activity with Compound I, antibody and digoxin in buffer. In kind it is biochemical. Particulars: antibody 4.5×10^-7 molar, after 21 minutes. How it is done:
as §1, with “C. The results are as follows:” for “C.”
The above experiment is repeated except digoxin at a concentration of 2.5×10^-5 molar is added to the sample cups. […] Fifty microliters of phosphate-gelatin buffer is added to a sample cup. The buffer solution either contains 2.5×10^-5 molar digoxin or is a control. To the sample cup is added a final concentration of 9×10^-7 molar digoxin antibody and 4.5×10^-7 molar Compound I. These solutions are allowed to incubate for 15 minutes and then enzyme is added and assayed according to the previous procedure. The results are as follows:
Using the above procedures with the exception that the antibody final concentration in the sample is 4.5×10^-7 molar, various phosphate-gelatin buffer solutions are prepared with the indicated digoxin concentration. Each of these solutions are analyzed by adding antibody and Compound I to the solution as in the previous procedure, allowing a 2.5 minute incubation period to elapse and assaying for the residual enzyme activity after 21 minutes.

The next assay has as its system acetylcholinesterase. Kind of assay: Digoxin in serum assay with Compound I. It is filed as biochemical, E. electricus. How it is done:
as §1, with “C. The results are as follows:” for “C.”
Normal human serum containing digoxin concentrations listed in the table below are assayed by the procedure set out above.
N-Ethylmaleimide is used to block background sulfhydryl groups in human serum.
Thus, 1 μl of concentrated digoxin antibody in pH 7.0 phosphate-gelatin buffer containing 50 mM of N-methylorphenadrine is added to 50 μl of each serum standard then N-ethylmaleimide is added with mixing to each serum standard to make a working concentration of 1.6 mM. To the serum is also added 1 μl of a solution containing Compound I in pH 7.0, 0.1 molar phosphate-gelatin buffer. The final antibody concentration is 8.0×10^-7 molar and the final concentration of Compound I is 4.5×10^-7. These solutions are allowed to incubate for 12 minutes at which time acetylcholinesterase is added as before. After 26 minutes, the bichromatic spectrophotometer is started and a sample from each cup is diluted 26-fold with assay buffer containing 1.6×10^-5 molar DTNB, 5×10^-4 molar acetyl-β-methylthiocholine iodide, and 1 mM N-methyl-orphenadrine in pH 7.0, 0.1 molar phosphate-gelatin buffer. The final enzyme concentration is about 2×10^-11 molar and the cuvette temperature is 30° C. The change in absorbance after 5 minutes is as follows: […]

Assay [4] deals with human serum cholinesterase. The assay can be described thus: Inhibition of human serum cholinesterase. Particulars: 1 mM. It is filed as biochemical. The text has this:
(§2) N,N,N-Trimethyl-2-(o-methyl-α-phenylbenzyloxy) ethylammonium methylsulfate(N-methylorphenadrine) prepared by reacting N,N-dimethyl-2-(o-methyl-α-phenylbenzyloxy) ethylamine(orphenadrine)with dimethylsulfate.

The target of assay [5] is cholinesterase from E.electricus (Electrophorus electricus, UniProt O42275). Kind of assay: Inhibition of cholinesterase from E.electricus. It is filed as biochemical. As to conditions: 1 mM.
Description: as §2

T1 sequence (O42275 24-633): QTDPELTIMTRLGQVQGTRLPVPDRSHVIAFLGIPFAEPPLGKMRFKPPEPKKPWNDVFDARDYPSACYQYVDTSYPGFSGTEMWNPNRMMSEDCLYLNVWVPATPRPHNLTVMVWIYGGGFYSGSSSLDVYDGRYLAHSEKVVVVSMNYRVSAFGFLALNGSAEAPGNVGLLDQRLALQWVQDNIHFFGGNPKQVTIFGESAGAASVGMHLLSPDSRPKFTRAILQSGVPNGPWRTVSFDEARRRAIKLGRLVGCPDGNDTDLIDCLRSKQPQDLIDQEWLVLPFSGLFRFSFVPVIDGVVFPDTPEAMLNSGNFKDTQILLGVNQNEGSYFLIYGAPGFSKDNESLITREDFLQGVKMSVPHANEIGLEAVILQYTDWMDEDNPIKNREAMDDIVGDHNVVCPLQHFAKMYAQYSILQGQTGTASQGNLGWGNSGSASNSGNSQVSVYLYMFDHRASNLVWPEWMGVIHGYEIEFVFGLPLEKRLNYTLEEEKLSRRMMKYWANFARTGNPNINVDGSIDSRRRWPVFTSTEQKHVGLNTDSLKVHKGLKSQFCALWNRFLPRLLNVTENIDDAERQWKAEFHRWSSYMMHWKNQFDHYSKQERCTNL
Chain of cholinesterase from E.electricus (O42275 24-633): as above

With `CCOP(=O)(OCCCCCNC(=O)CCCCCNC(=O)OC1CCC2(C)C(CCC3C2CC(O)C2(C)C(C4=CC(=O)OC4)CCC32O)C1)Oc1ccc2ccc[n+](C)c2c1` (stereo not shown) [Compound I], the “change in absorbance with time” value in assay [1] (antibody 9 × 10^-7 M, enzyme 1.9 × 10^-10 M, 10' incubation) was 0.161 Ad/5 min; in assay [1] (antibody 9 × 10^-7 M, enzyme 1.9 × 10^-10 M, 21' incubation) it was 0.137 Ad/5 min; in assay [1] (antibody 9 × 10^-7 M, enzyme 1.9 × 10^-10 M, 43' incubation) it was 0.107 Ad/5 min; in assay [1] (antibody 9 × 10^-8 M, enzyme 1.9 × 10^-10 M, 10' incubation), 0.089 Ad/5 min; in assay [1] (antibody 9 × 10^-8 M, enzyme 1.9 × 10^-10 M, 21' incubation) it was 0.027 Ad/5 min; in assay [1] (antibody 9 × 10^-8 M, enzyme 1.9 × 10^-10 M, 43' incubation), 0.005 Ad/5 min. The “change in absorbance with time” value turned out to be 0.045 Ad/5 min in assay [1] (no antibody, enzyme 1.9 × 10^-10 M (enzyme alone 0.220), 10' incubation); 0.015 Ad/5 min in assay [1] (no antibody, enzyme 1.9 × 10^-10 M (enzyme alone 0.221), 21' incubation); 0.003 Ad/5 min in assay [1] (no antibody, enzyme 1.9 × 10^-10 M (enzyme alone 0.222), 43' incubation). Further, the “Ad/5 min. after enzyme-inhibitor incubation time” value turned out to be 0.160 Ad/5 min in assay [2] (Enzyme + Compound I + Antibody (9×10^-7 molar), 0.3'); 0.129 Ad/5 min in assay [2] (Enzyme + Compound I + Antibody (9×10^-7 molar), 11'); 0.115 Ad/5 min in assay [2] (Enzyme + Compound I + Antibody (9×10^-7 molar), 19'); 0.160 Ad/5 min in assay [2] (Enzyme + Compound I + Antibody + Digoxin (2.5×10^-5 molar), 0.3'); 0.068 Ad/5 min in assay [2] (Enzyme + Compound I + Antibody + Digoxin (2.5×10^-5 molar), 11'); 0.038 Ad/5 min in assay [2] (Enzyme + Compound I + Antibody + Digoxin (2.5×10^-5 molar), 19'). For the same compound, the “Ad/5 min. after enzyme-inhibitor incubation time” value in assay [2] (Enzyme + Compound I, 0.3' (enzyme only 0.174)) stood at 0.162 Ad/5 min; in assay [2] (Enzyme + Compound I, 11' (enzyme only 0.169)), 0.037 Ad/5 min; in assay [2] (Enzyme + Compound I, 19' (enzyme only 0.167)) it was 0.013 Ad/5 min. Besides, the “% Activity of Enzyme” value in assay [3] (digoxin 0.062 μM) was determined as 65%; in assay [3] (digoxin 0.125 μM), 65%; in assay [3] (digoxin 0.25 μM), 62%; in assay [3] (digoxin 0.5 μM), 57%; in assay [3] (digoxin 1.0 μM), 36%. Also, the “change in absorbance after 5 minutes” value with acetylcholinesterase (digoxin in serum 0.1 μM, antibody 8.0×10^-7 molar, Compound I 4.5×10^-7) was found to be 0.096 Ad/5 Min; with acetylcholinesterase (digoxin in serum 0.13 μM), 0.089 Ad/5 Min; with acetylcholinesterase (digoxin in serum 0.17 μM), 0.083 Ad/5 Min; in the assay with acetylcholinesterase (digoxin in serum 0.26 μM), 0.077 Ad/5 Min; in the assay with acetylcholinesterase (digoxin in serum 0.34 μM), 0.073 Ad/5 Min; in the assay on acetylcholinesterase (digoxin in serum 0.51 μM), 0.063 Ad/5 Min. The “change in absorbance after 5 minutes” value in the assay with acetylcholinesterase (digoxin in serum 0.64 μM) stood at 0.060 Ad/5 Min; in the assay on acetylcholinesterase (digoxin in serum 0.85 μM), 0.047 Ad/5 Min; in the assay with acetylcholinesterase (digoxin in serum 1.30 μM), 0.035 Ad/5 Min.

Turning to `Cc1ccccc1C(OCC[N+](C)(C)C)c1ccccc1` (stereo not drawn) [N-methylorphenadrine, N,N,N-Trimethyl-2-(o-methyl-α-phenylbenzyloxy) ethylammonium methylsulfate], the “inhibition of human serum cholinesterase” value in assay [4] is reported as “greater than 99%”. In addition, testing at 1000 µM in assay [5] gave an inhibition of 25%.
